SMILES strings stand for the structures. “Also recorded” adds a separate entry of the source.

This note sets out measurements from paper PMC7754465, “Multiparameter Kinetic Analysis for Covalent Fragment Optimization by Using Quantitative Irreversible Tethering (qIT)” (Chembiochem, 2020).

This test has as its target T1, pCdk2(ES)/cyclin A holoenzyme (Homo sapiens, UniProt P24941, C177A/F80C).
T1 construct: GST (N, cleaved yes); made in house; host or cells: E. coli Tuner(DE3); Cdk2 phosphorylated in vitro with GST-CAK1 (S. cerevisiae)
Kind of test: spectrophotometric coupled (LDH/PK) kinase assay after labelling and dialysis. It counts as biochemical. To be noted: treatment with 0.5 mM acrylamide, then dialysis to remove ligand. From the text: Next we undertook biochemical validation of the electrophile sensitive approach using a spectrophotometric kinase assay. In this experiment the activity of Cdk2 is activated both by phosphorylation and interaction with cyclin A. The catalytic turnover of ATP is coupled to the oxidation of NADH by lactate dehydrogenase (LDH) and pyruvate kinase (PK), which is monitored by absorbance at 340 nm.
H. Intact-protein mass spectrometry
Protein-mass data were obtained on a Waters micromass LC-TOF mass spectrometer in positive ion mode using electrospray ionization. Samples were chromatographed using an Acquity UPLC protein BEH C4 column (2.1 mm × 50 mm, 2.7 µm) with a flow rate of 30 µL/min. The injection volume was 5 µL of protein solution (5 µM) in 30 mM ammonium bicarbonate buffer con-taining 0.5% formic acid and 20% MeOH. The gradient used was 100% mobile phase A (0.1% formic acid in water/MeOH (19:1)) ramping linearly to 90% mobile phase B (0.1% formic acid in MeOH) over 5 minutes. […]
4EK3) and the model was iteratively refined using Phenix.Refine[13] with manual modelling and adjustments carried out in COOT[14]. […] Electron density maps were calculated using FFT[17] and figures were prepared using PyMol (Schrö dinger). […]

In the case of `C=CC(=O)Nc1ccc(-c2ncccn2)cc1` [S1], the “inhibition of kinase activity” value is reported as “complete irreversible inhbition”.
Then `C=CC(=O)N1CCCc2cc(C(=O)OC)ccc21` [compound 1], with “complete irreversible inhbition; also recorded: complete inhibition”.
